According to US12466839B2, “Allosteric AKT inhibitors for use in the treatment of Hereditary Hemorrhagic Telangiectasia” (VADERIS THERAPEUTICS AG, priority 2020, dated 2025):

Columns and labels:
[1] = system: AVM formation in Eng-iKO mice; test: Prevention of AVM formation in Eng-iKO mice (retinal vascular network); format: in vivo, mouse
Method: The Eng Flox/flox; cdh5-CreERT2 were injected with tamoxifen (50 μg) at P2 to […] once at P3, P4, P5 and P6. The same volume of vehicle was injected serving as control animals. Mice were then euthanized at P7 and retinas processed for immunofluorescence staining as described (Lebrin et al., as above).
The same volume of vehicle was injected serving as control animals. Mice were then euthanized at P7 and retinas processed for immunofluorescence staining as described (Lebrin et al., as above).
For the retinal vascular network, quantification of the number of AV shunts per mouse was done manually. […] A custom own-lab made macro allowed automatic processing of the images, using the same processing and quantification parameters. Briefly, the brightness of the images was enhanced by modifying the pixel extreme values, which depends on the specific image histogram content. A Gaussian filter was applied to reduce the intensity in homogeneities. The filter order depended on the image resolution. Next, the threshold step was computed, based on a global threshold technique such as Otsu's method or Li's method, resulting in binary image. A median filter was then applied to eliminate potential local irregularities, which could cause false branching point detection. From the binary images, the vascular density was quantified (calculated as the ratio of pixels associated with the vessels divided by the total number of pixels in the image). For the other parameters, a skeleton of the images was first computed using ImageJ, then the total vascular length was quantified using the Measure Skeleton Length plug-in from ImageJ. The number of branch points was extracted from the Analyze Skeleton plug-in of ImageJ. All results were transferred to Microsoft Office Excel software and automatically rearranged using a lab custom-made program. As all images generated at each step of the processing were saved, a visual control was made to ensure that there were no aberrant results.
Statistical analysis was performed with Prism 7 software (GraphPad). For most of the experiments, 1-way ANOVA was used for multiple comparisons. Results are expressed as mean±SEM. For post hoc pairwise, the Dunnett's test was used. A value of *P<0.05, **P<0.01, ***P<0.001 or ****P<0.0001 denotes statistical significance. An in-group variation of around 15% in parameters related to blood vessel architecture changes has been previously observed by the inventors, therefore a difference between controls and mutant mice of around 20-30% was anticipated. It was therefore expected that a group of 8 mice per condition would reveal statistical differences.
Eyes were fixed in 4% paraformaldehyde (PFA) in PBS at room temperature for 10 min, retinas were dissected, post-fixed in 4% PFA in PBS at 4° C. overnight then processed for immunostaining. Retinas were permeabilized in PBS, 1% BSA and 0.5% Triton X-100 at 4° C. overnight, rinsed in PBS, washed twice in PBlec (PBS, pH 6.8, 1% Triton-X-100, 0.1 mM CaCl2, 0.1 mM MgCl2, 0.1 mM MnCl2), and then incubated in biotinylated Griffonia simplicifolia lectin (isolectin B4) (B-1205, Vector Laboratories, 1:50) in PBlec at 4° C. overnight. After 5 washes in PBS, samples were incubated with streptavidin Cy-3 (PA43001, Sigma-Aldrich, 1:100) and with a-SMA (clone 1A4) (F3777, Sigma-Aldrich) conjugated with FITC diluted in PBS, 0.5% BSA, and 0.25% X-100 at 4° C. for 2 h. After washing, flat whole-mount retinas were mounted in DAKO medium (S3023, Dako). Complete high-resolution 3-dimensional rendering of whole-mount retinas was acquired using Laser Scanning Microscope SP5 or SP8 (Leica).

MCF7 tumor cells = test: IC50 in MCF7 tumor cells in vitro; format: cell-based; details: Homo sapiens
V2 = target: T1, V2 (Homo sapiens, UniProt P30518); test: Millipore Drug Discovery Safety and Liability Panel; format: cell-based
T1 construct: Millipore

ADRA1A = target: T2, ADRA1A (Homo sapiens, UniProt P35348); test: as above; format: cell-based
T2 construct: purchased Millipore

GPR14 = target: T3, GPR14 (Homo sapiens, UniProt Q9UKP6); test: as above; format: cell-based
T3 construct: purchased Millipore

[2] = read-out: AGONIST mean % increase in activity
[3] = read-out: ANTAGONIST mean % inhibition

T1 sequence (P30518 whole entry): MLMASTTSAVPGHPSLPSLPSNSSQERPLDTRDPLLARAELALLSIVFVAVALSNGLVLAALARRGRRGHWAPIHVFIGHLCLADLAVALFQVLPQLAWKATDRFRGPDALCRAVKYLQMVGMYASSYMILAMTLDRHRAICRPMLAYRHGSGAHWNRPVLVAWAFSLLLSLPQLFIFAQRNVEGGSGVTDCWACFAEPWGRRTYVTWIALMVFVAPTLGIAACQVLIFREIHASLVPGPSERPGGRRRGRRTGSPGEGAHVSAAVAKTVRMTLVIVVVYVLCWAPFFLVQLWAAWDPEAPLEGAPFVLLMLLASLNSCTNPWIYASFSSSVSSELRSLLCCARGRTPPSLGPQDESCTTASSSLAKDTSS
T2 sequence (P35348 whole entry): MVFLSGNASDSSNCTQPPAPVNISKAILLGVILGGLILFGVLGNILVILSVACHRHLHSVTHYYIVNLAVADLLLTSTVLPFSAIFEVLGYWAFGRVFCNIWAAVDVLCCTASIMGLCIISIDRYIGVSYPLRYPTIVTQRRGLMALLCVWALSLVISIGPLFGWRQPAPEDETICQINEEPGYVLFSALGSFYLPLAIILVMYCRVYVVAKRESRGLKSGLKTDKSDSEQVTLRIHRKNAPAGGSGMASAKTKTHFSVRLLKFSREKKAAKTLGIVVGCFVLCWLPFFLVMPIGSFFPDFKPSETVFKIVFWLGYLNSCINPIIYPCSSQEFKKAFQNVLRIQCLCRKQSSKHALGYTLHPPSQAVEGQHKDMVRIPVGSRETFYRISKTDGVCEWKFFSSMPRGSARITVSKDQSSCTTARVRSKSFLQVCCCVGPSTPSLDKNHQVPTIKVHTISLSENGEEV
T3 sequence (Q9UKP6 whole entry, species assumed): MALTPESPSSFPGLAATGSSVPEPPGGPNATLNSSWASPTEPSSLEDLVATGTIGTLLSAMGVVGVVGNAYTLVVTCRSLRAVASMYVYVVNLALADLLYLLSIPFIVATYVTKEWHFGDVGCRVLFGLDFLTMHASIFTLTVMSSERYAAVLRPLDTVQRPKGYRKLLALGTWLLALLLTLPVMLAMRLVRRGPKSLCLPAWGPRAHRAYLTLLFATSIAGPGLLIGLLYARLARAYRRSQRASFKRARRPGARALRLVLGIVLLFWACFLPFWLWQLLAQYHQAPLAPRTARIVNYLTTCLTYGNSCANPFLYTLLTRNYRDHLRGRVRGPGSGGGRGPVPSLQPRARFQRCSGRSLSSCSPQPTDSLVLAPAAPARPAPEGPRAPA

For `CCN1C(=O)COc2nc(-c3ccc(C4(N)CC(O)C4)cc3)c(-c3ccccc3)cc21.O=C(O)C(O)C(O)C(=O)O` [VAD044, 6-(4-(1-amino-3-hydroxycyclobutyl)phenyl)-1-ethyl-7-phenyl-1H-pyrido[2,3-b][1,4]oxazin-2(3H)-one L-tartrate], the “prevention of AVM shunt formation” value ([1]; 2.5 mg·kg−1) was “fully prevent AVM shunt formation”, the “density of the retinal vascular network” value ([1]; Eng-iKO mice) was “normalize the density” and the “number of branch points of the Eng-iKO vascular network” value ([1]; Eng-iKO mice) was “slightly reducing”. The “radial expansion of the Eng-iKO vascular network” value ([1]; Eng-iKO mice) was “slightly reducing”, the “prevention of AV shunt formation” value ([1]; Eng-iKO mice, 1.25 mg·kg-1) was “not to be effective” and the “prevention of AV shunt formation” value ([1]; Eng-iKO mice, 2.5 mg·kg-1 and above, at P3 and P5) was “efficiently prevented AV shunt formation”. It also gave a minimal effective dose ([1]; HHT1 (Eng-iKO) mouse model) of 2.5 mg/kg, an IC50 (MCF7 tumor cells) of roughly 50 nM and an activation at 10 µM (V2; [2]) of -1.5%. The inhibition at 10 µM (V2; [3]) was 22.8%, the activation at 10 µM (ADRA1A; ADRA1A, 10 μM, read-out: AGONIST mean % increase in activity) was -0.7% and the inhibition at 10 µM (ADRA1A; [3]) was 9.9%. The activation at 10 µM (GPR14; [2]) was 29.5% and the inhibition at 10 µM (GPR14; [3]) was 52.9%.
